Test results reported in PubChem BioAssay (NCI).
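Compound exposure: 48 hours, 5 concentrations, 96-well plates. GI50 marks 50% less growth. At the TGI there is no net growth.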

How the values were obtained:
Assay in all cases: DTP human tumour cell line panel, 48 h; in the data active = GI50 below about 0.43 µM; inactive = the rest
UO-31 renal = tested on: UO-31 renal
SR leukemia = tested on: SR leukemia
MDA-MB-435 = tested on: MDA-MB-435
NCI-H23 lung = tested on: NCI-H23 lung
MCF7 breast = tested on: MCF7 breast
T-47D breast = tested on: T-47D breast
DU-145 prostate = tested on: DU-145 prostate
KM12 colon = tested on: KM12 colon
HOP-92 NSCLC = tested on: HOP-92 NSCLC
U251 CNS = tested on: U251 CNS
SN12C renal = tested on: SN12C renal
M14 melanoma = tested on: M14 melanoma
MDA-MB-231 breast = tested on: MDA-MB-231 breast
SNB-19 CNS = tested on: SNB-19 CNS
HL-60(TB) leukemia = tested on: HL-60(TB) leukemia
CAKI-1 renal = tested on: CAKI-1 renal
SK-MEL-2 melanoma = tested on: SK-MEL-2 melanoma
HCC-2998 colon = tested on: HCC-2998 colon
UACC-257 melanoma = tested on: UACC-257 melanoma
ACHN renal = tested on: ACHN renal
A549 NSCLC = tested on: A549 NSCLC
NCI-H226 lung = tested on: NCI-H226 lung
SK-MEL-28 melanoma = tested on: SK-MEL-28 melanoma
OVCAR-8 ovarian = tested on: OVCAR-8 ovarian
HCT-116 colon = tested on: HCT-116 colon
A498 renal = tested on: A498 renal
IGROV1 ovarian = tested on: IGROV1 ovarian
LOX IMVI melanoma = tested on: LOX IMVI melanoma
MOLT-4 leukemia = tested on: MOLT-4 leukemia
SK-MEL-5 melanoma = tested on: SK-MEL-5 melanoma
SK-OV-3 ovarian = tested on: SK-OV-3 ovarian
TK-10 renal = tested on: TK-10 renal
HOP-62 NSCLC = tested on: HOP-62 NSCLC
OVCAR-4 ovarian = tested on: OVCAR-4 ovarian
NCI/ADR-RES ovarian = tested on: NCI/ADR-RES ovarian
SF-539 CNS = tested on: SF-539 CNS
RPMI-8226 leukemia = tested on: RPMI-8226 leukemia
BT-549 breast = tested on: BT-549 breast
K-562 leukemia = tested on: K-562 leukemia
PC-3 prostate = tested on: PC-3 prostate
CCRF-CEM leukemia = tested on: CCRF-CEM leukemia
SW-620 colon = tested on: SW-620 colon
RXF 393 renal = tested on: RXF 393 renal
OVCAR-3 ovarian = tested on: OVCAR-3 ovarian
MALME-3M melanoma = tested on: MALME-3M melanoma
OVCAR-5 ovarian = tested on: OVCAR-5 ovarian
NCI-H460 lung = tested on: NCI-H460 lung
HS 578T breast = tested on: HS 578T breast
SF-268 CNS = tested on: SF-268 CNS
SNB-75 CNS = tested on: SNB-75 CNS
HCT-15 colon = tested on: HCT-15 colon
HT29 colon = tested on: HT29 colon
COLO 205 colon = tested on: COLO 205 colon
786-0 renal = tested on: 786-0 renal
UACC-62 melanoma = tested on: UACC-62 melanoma

C/C(O)=C(\C#N)C(=O)Nc1ccc(C(F)(F)F)cc1
52.9 µM: TGI (A498 renal)
inactive: GI50 (UO-31 renal) 18.1 µM | GI50 (SR leukemia) > 100 µM | GI50 (MDA-MB-435) 37.1 µM | GI50 (NCI-H23 lung) 73.7 µM | GI50 (MCF7 breast) 38.5 µM | GI50 (T-47D breast) 92 µM | GI50 (DU-145 prostate) 46.7 µM | GI50 (KM12 colon) 23.9 µM | GI50 (HOP-92 NSCLC) 13.4 µM | GI50 (U251 CNS) 5.34 µM | GI50 (SN12C renal) 29.1 µM | GI50 (M14 melanoma) 52.5 µM | GI50 (MDA-MB-231 breast) 26.3 µM | GI50 (SNB-19 CNS) 24.5 µM | GI50 (HL-60(TB) leukemia) 64.3 µM | GI50 (CAKI-1 renal) 5.46 µM | GI50 (SK-MEL-2 melanoma) 73.2 µM | GI50 (HCC-2998 colon) 45.2 µM | GI50 (UACC-257 melanoma) > 100 µM | GI50 (ACHN renal) 45.7 µM | GI50 (A549 NSCLC) 26.5 µM | GI50 (NCI-H226 lung) 98 µM | GI50 (SK-MEL-28 melanoma) 69.5 µM | GI50 (OVCAR-8 ovarian) 13.5 µM | GI50 (HCT-116 colon) 7.5 µM | GI50 (A498 renal) 1.36 µM | GI50 (IGROV1 ovarian) 28.4 µM | GI50 (LOX IMVI melanoma) 8.21 µM | GI50 (MOLT-4 leukemia) 67.9 µM | GI50 (SK-MEL-5 melanoma) 15.9 µM | GI50 (SK-OV-3 ovarian) 94.5 µM | GI50 (TK-10 renal) > 100 µM | GI50 (HOP-62 NSCLC) 77.9 µM | GI50 (OVCAR-4 ovarian) 91 µM | GI50 (NCI/ADR-RES ovarian) 21.4 µM | GI50 (SF-539 CNS) 16 µM | GI50 (RPMI-8226 leukemia) 24.8 µM | GI50 (BT-549 breast) 51.7 µM | GI50 (K-562 leukemia) 8.13 µM | GI50 (PC-3 prostate) 7.97 µM | GI50 (CCRF-CEM leukemia) 18.5 µM | GI50 (SW-620 colon) 36.4 µM | GI50 (RXF 393 renal) 18.6 µM | GI50 (OVCAR-3 ovarian) 37 µM | GI50 (MALME-3M melanoma) 62.8 µM | GI50 (OVCAR-5 ovarian) > 100 µM | GI50 (NCI-H460 lung) 8.92 µM | GI50 (HS 578T breast) 39.1 µM | GI50 (SF-268 CNS) 15 µM | GI50 (SNB-75 CNS) > 100 µM | GI50 (HCT-15 colon) 5.96 µM | GI50 (HT29 colon) 44.6 µM | GI50 (COLO 205 colon) 47.3 µM | GI50 (786-0 renal) 34.3 µM | GI50 (UACC-62 melanoma) 15.6 µM
> 100 µM: TGI (UO-31 renal) | TGI (SR leukemia) | TGI (MDA-MB-435) | TGI (NCI-H23 lung) | TGI (MCF7 breast) | TGI (T-47D breast) | TGI (DU-145 prostate) | TGI (KM12 colon) | TGI (HOP-92 NSCLC) | TGI (U251 CNS) | TGI (SN12C renal) | TGI (M14 melanoma) | TGI (MDA-MB-231 breast) | TGI (SNB-19 CNS) | TGI (HL-60(TB) leukemia) | TGI (CAKI-1 renal) | TGI (SK-MEL-2 melanoma) | TGI (HCC-2998 colon) | TGI (UACC-257 melanoma) | TGI (ACHN renal) | TGI (A549 NSCLC) | TGI (NCI-H226 lung) | TGI (SK-MEL-28 melanoma) | TGI (OVCAR-8 ovarian) | TGI (HCT-116 colon) | TGI (IGROV1 ovarian) | TGI (LOX IMVI melanoma) | TGI (MOLT-4 leukemia) | TGI (SK-MEL-5 melanoma) | TGI (SK-OV-3 ovarian) | TGI (TK-10 renal) | TGI (HOP-62 NSCLC) | TGI (OVCAR-4 ovarian) | TGI (NCI/ADR-RES ovarian) | TGI (SF-539 CNS) | TGI (RPMI-8226 leukemia) | TGI (BT-549 breast) | TGI (K-562 leukemia) | TGI (PC-3 prostate) | TGI (CCRF-CEM leukemia) | TGI (SW-620 colon) | TGI (RXF 393 renal) | TGI (OVCAR-3 ovarian) | TGI (MALME-3M melanoma) | TGI (OVCAR-5 ovarian) | TGI (NCI-H460 lung) | TGI (HS 578T breast) | TGI (SF-268 CNS) | TGI (SNB-75 CNS) | TGI (HCT-15 colon) | TGI (HT29 colon) | TGI (COLO 205 colon) | TGI (786-0 renal) | TGI (UACC-62 melanoma)
